Experimental data as given in US20120027816A1, “HIGHLY PURE ELETRIPTAN OR A PHARMACEUTICALLY ACCEPTABLE SALT THEREOF SUBSTANTIALLY FREE OF ELETRIPTAN N-OXIDE IMPURITY” (ACTAVIS GROUP PTC EHF, priority 2009, published 2012).
Where a name gives a salt, the structure may show the parent alone.

Assay: Particle Size Distribution by laser diffraction (Malvern Master Sizer 2000)
Assay type: physicochemical
Settings: eletriptan hydrobromide obtained by the Example 4 procedure, unmilled, cumulative volume size distribution
Description: As used herein, “Particle Size Distribution (PSD)” means the cumulative volume size distribution of equivalent spherical diameters as determined by laser diffraction in Malvern Master Sizer 2000 equipment or its equivalent using a particle size method containing Tegiloxan medium with sonication time of 10 seconds and stirrer speed of 2500 rpm. “Mean particle size distribution, i.e., (D50)” correspondingly, means the median of said particle size distribution. The important characteristics of the PSD are the (D90), which is the size, in microns, below which 90% of the particles by volume are found, and the (D50), which is the size, in microns, below which 50% of the particles by volume are found. Thus, a D90 or d(0.9) of less than 300 microns means that 90 volume-percent of the particles in a composition have a diameter less than 300 microns.

| Particle Size Distribution d(0.1) | Particle Size Distribution d(0.5) | Particle Size Distribution d(0.9) | SMILES |
| --- | --- | --- | --- |
| 12.07 microns | 27.69 microns | 53.92 microns | CN1CCC[C@@H]1Cc1c[nH]c2ccc(CCS(=O)(=O)c3ccccc3)cc12 [Example 4A, eletriptan hydrobromide] |
| 13.58 microns | 27.25 microns | 50.91 microns | CN1CCC[C@@H]1Cc1c[nH]c2ccc(CCS(=O)(=O)c3ccccc3)cc12 [Example 4C, eletriptan hydrobromide] |
| 9.99 microns | 20.85 microns | 42.83 microns | CN1CCC[C@@H]1Cc1c[nH]c2ccc(CCS(=O)(=O)c3ccccc3)cc12 [Example 4B, eletriptan hydrobromide] |
